Experimental data published in PubChem BioAssay AID2060903 (Molecular Pharmacology Branch, DTP, NCI, 2025).

Test system: 377384-186-R-J1-PDC complex spheroid viability
Assay: Anticancer human tumor 377384-186-R-J1-PDC patient-derived pancreatic carcinoma cell line growth inhibition [RAS]
Conditions: for IC50: curve of first compound; for viability, T/C: stronger effect = lower value
Method in brief: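 Agents were tested in combination matrices in half-log decrements from a top concentration at or near clinical Cmax (10 microM if undetermined). Targets were multi-cell spheroids of tumour lines plus HUVEC and MSC stromal cells.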
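Further: spheroids exposed to compounds for seven days before readout.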

IC50 (second compound 0.000949 µM): 6.49 nM
IC50 (second compound 0.003 µM): 6.94 nM
IC50 (second compound 0.00949 µM): 6.25 nM
IC50 (second compound 0.03 µM): 6.09 nM
IC50 (second compound 0.0949 µM): 4.39 nM
IC50 (second compound 0.3 µM): 4.25 nM
Compound: CC1(C)CCC(Nc2ncc(C(F)(F)F)c(-c3c[nH]c4c(P(C)(C)=O)c(C#N)ccc34)n2)CN1 (configuration not stated) + CCn1c(-c2cccnc2C(C)OC)c2c3cc(ccc31)N1CCOC(CC(NC(=O)C(C(C)C)N(C)C(=O)C3(F)CCN(C(=O)C#CC(C)(C)N(C)C)CC3)C(=O)N3CCCC(N3)C(=O)OCC(C)(C)C2)C1
viability, T/C (second compound 0.000949 µM, first compound 0.000949 µM): 96%
viability, T/C (second compound 0.000949 µM, first compound 0.003 µM): 75.9%
viability, T/C (second compound 0.000949 µM, first compound 0.00949 µM): 36.1%
viability, T/C (second compound 0.000949 µM, first compound 0.03 µM): 30.8%
viability, T/C (second compound 0.000949 µM, first compound 0.0949 µM): 22.1%
viability, T/C (second compound 0.000949 µM, first compound 0.3 µM): 22.8%
viability, T/C (second compound 0.003 µM, first compound 0.000949 µM): 92.7%
viability, T/C (second compound 0.003 µM, first compound 0.003 µM): 82.8%
viability, T/C (second compound 0.003 µM, first compound 0.00949 µM): 37.5%
viability, T/C (second compound 0.003 µM, first compound 0.03 µM): 25.2%
viability, T/C (second compound 0.003 µM, first compound 0.0949 µM): 22.9%
viability, T/C (second compound 0.003 µM, first compound 0.3 µM): 20.3%
viability, T/C (second compound 0.00949 µM, first compound 0.000949 µM): 96.6%
viability, T/C (second compound 0.00949 µM, first compound 0.003 µM): 71.8%
viability, T/C (second compound 0.00949 µM, first compound 0.00949 µM): 37.8%
viability, T/C (second compound 0.00949 µM, first compound 0.03 µM): 23.5%
viability, T/C (second compound 0.00949 µM, first compound 0.0949 µM): 21.9%
viability, T/C (second compound 0.00949 µM, first compound 0.3 µM): 20.6%
viability, T/C (second compound 0.03 µM, first compound 0.000949 µM): 85.2%
viability, T/C (second compound 0.03 µM, first compound 0.003 µM): 73.4%
viability, T/C (second compound 0.03 µM, first compound 0.00949 µM): 35.3%
viability, T/C (second compound 0.03 µM, first compound 0.03 µM): 19.5%
viability, T/C (second compound 0.03 µM, first compound 0.0949 µM): 19.3%
viability, T/C (second compound 0.03 µM, first compound 0.3 µM): 16.3%
viability, T/C (second compound 0.0949 µM, first compound 0.000949 µM): 88.5%
viability, T/C (second compound 0.0949 µM, first compound 0.003 µM): 61.7%
viability, T/C (second compound 0.0949 µM, first compound 0.00949 µM): 26.1%
viability, T/C (second compound 0.0949 µM, first compound 0.03 µM): 19.4%
viability, T/C (second compound 0.0949 µM, first compound 0.0949 µM): 16.6%
viability, T/C (second compound 0.0949 µM, first compound 0.3 µM): 14.8%
viability, T/C (second compound 0.3 µM, first compound 0.000949 µM): 85.2%
viability, T/C (second compound 0.3 µM, first compound 0.003 µM): 61.6%
viability, T/C (second compound 0.3 µM, first compound 0.00949 µM): 23%
viability, T/C (second compound 0.3 µM, first compound 0.03 µM): 18.1%
viability, T/C (second compound 0.3 µM, first compound 0.0949 µM): 15.7%
viability, T/C (second compound 0.3 µM, first compound 0.3 µM): 13.4%
